Values after ≈ are worked out from the molar mass of the structure shown. “Also recorded” adds a separate entry of the source.
Experiments:
[1] = system: Staphylococcus aureus PIA 9; assay: microbe, parasite or virus in culture; conditions: planktonic, SA PIA 9
Procedure: (§1) Bacteria were grown overnight at 37° C. in cation adjusted Mueller-Hinton II Broth (MHIIB).
(§2) We determined the MICs of oxacillin, gentamicin, tetracycline, vancomycin and linezolid using E-test (AB Biodisk, Solna, Sweden) and MICs of rifampicin using broth microdilution assay. Breakpoints were interpreted according to EUCAST criteria. […] All 3 SAMPs are tripeptides with two arginine residues providing their cationic moieties (FIG. 1). The lipophilic bulk is provided by a modified tryptophane derivate. […] The molecular weights of the SAMPs are in the range of 700-800 Dalton.

[2] = system: Staphylococcus aureus PIA90; assay: microbe, parasite or virus in culture; conditions: planktonic, SA PIA90
Procedure: as §1, §2

[3] = system: Staphylococcus epidermidis RP62A ATCC 35984; assay: microbe, parasite or virus in culture; conditions: planktonic, SE RP62A ATCC 35984
Procedure: as §1, §2

[4] = system: Staphylococcus epidermidis TUH 08-16; assay: microbe, parasite or virus in culture; conditions: planktonic, SE TUH 08-16
Procedure: as §1, §2

[5] = system: Staphylococcus haemolyticus TUH 51-03; assay: microbe, parasite or virus in culture; conditions: planktonic, SH TUH 51-03
Procedure: as §1, §2

[6] = system: Staphylococcus haemolyticus TUH 51-07; assay: microbe, parasite or virus in culture; conditions: planktonic, SH TUH 51-07
Procedure: as §1, §2

[7] = system: S. haemolyticus TUH 51-07 biofilm; assay: Biofilm metabolic activity, Alamar blue reduction; type: cell-based, Staphylococcus haemolyticus; conditions: 500 mg/L, 24 h
Procedure: (§3) Biofilm formation was induced in 96-well flat bottom microtitre plates (Nunclon Surface, NUNC, Roskilde, Denmark). First, overnight cultures were diluted 1:100 in MHIIB (S. epidermidis and S. haemolyticus) or tryptic soy broth (TSB) with 5% glucose and 5% NaCl (S. aureus). Two hundred of this bacterial suspension (10^7 cfu/ml) was added to each well and incubated for 24 h at 37° C. After 24 h the wells were carefully washed twice with phosphate-buffered saline (PBS) to remove planktonic bacteria. The washing procedure was evaluated by measuring metabolic activity of the PBS with the Alamar blue method, described in detail below. […]
(§4) We quantified the metabolic activity of biofilm with a slightly modified method previously described by Pettit et al. in Antimicrob. […] After 1 h incubation at 37° C., absorbance was recorded at 570 and 600 nm using Versamax tuneable microplate reader (Molecular Devices, Sunnyvale, Calif., USA). […]
(§5) The percent reduction of AB was calculated according to the manufacturer's formula (Invitrogen, Carlsbad, USA). We calculated mean and standard deviations (SD) of all repeated measurements. Pearson's two-tailed correlation between the AB method and the CV method (FIG. 2) was calculated on averaged data from all 6 staphylococcal strains. […]

S. aureus PIA 90 biofilm = assay: Biofilm metabolic activity, Alamar blue reduction; type: cell-based, Staphylococcus aureus
Procedure: as §3, §4, §5

[8] = system: six staphylococcal strains (2 S. epidermidis, 2 S. haemolyticus and 2 S. aureus); assay: Susceptibility testing under planktonic growth condition, EUCAST breakpoints; type: cell-based; conditions: all 6 strains; EUCAST criteria
Procedure: The six staphylococcal strains (2 S. epidermidis, 2 S. haemolyticus and 2 S. aureus) used in this study were selected based on their previously known biofilm forming capacity (Table 1).
as §1
We determined the MICs of oxacillin, gentamicin, tetracycline, vancomycin and linezolid using E-test (AB Biodisk, Solna, Sweden) and MICs of rifampicin using broth microdilution assay. Breakpoints were interpreted according to EUCAST criteria. We selected 3 different SAMPs (Compounds A, B and C; Lytix Biopharma, Tromsø, Norway—see FIG. 1) based on previously known antimicrobial activities, and determined their exact MICs with broth microdilution assay. All 3 SAMPs are tripeptides with two arginine residues providing their cationic moieties (FIG. 1). The lipophilic bulk is provided by a modified tryptophane derivate. The difference between the compounds is the size of the C-terminal modification; Compound A has the smallest and Compound B has the largest C-terminal modification (FIG. 1). The molecular weights of the SAMPs are in the range of 700-800 Dalton.

[9] = system: S. haemolyticus TUH 51-07 biofilm; assay: Biofilm imaging, LIVE/DEAD staining and confocal laser scanning microscopy; type: cell-based, Staphylococcus haemolyticus; conditions: 500 mg/L, 24 h treatment
Procedure: One ml aliquots of MHIIB-diluted overnight culture was used to grow S. haemolyticus TUH 51-07 biofilm on plastic coverslides (Thermanox, cellculture treated on one side, NUNC, Roskilde, Denmark) in 24-well dishes (Falcon 3047, Becton Dickinson, NJ, USA) for 24 h. The coverslides were then washed carefully with PBS, moved to a new plate and treated for 24 h with tetracycline 50 mg/L and 500 mg/L, vancomycin 50 mg/L and 500 mg/L, or Compound A 50 mg/L and 500 mg/L. The coverslides were washed again with […] and stained with a LIVE/DEAD kit (Invitrogen Molecular Probes, Eugene, Oreg., USA) following the manufacturer's instructions. This stain contains SYTO 9 (green fluorescent) and propidium iodide (PI; red fluorescent), both binding to DNA. When used alone, the SYTO 9 generally stains all bacteria in a population; both those with intact and those with damaged membranes. In contrast, PI penetrates only bacteria with damaged membranes, causing a reduction in the SYTO 9 stain green fluorescence when both dyes are present. We examined treated and untreated biofilms with a Leica TCS SP5 (Leica Microsystems CMS Gmbh, Mannheim, Germany) confocal laser scanning microscope (CLSM). Images were obtained using a 63×1.2 NA HCX PL APO water immersion lens. For detection of SYTO9 (green channel), we used the 488 nm line of the argon laser and a detection bandwidth of 495-515 nm. For PI detection (red channel), we used the 561 nm line and a detection bandwidth of 615-660 nm. The two fluorescent-signals were collected sequentially at 400 Hz. Image analyses and export was performed in Leica LAS AF version 1.8.2.

## CN(C)[C@@H]1C(=O)C(C(N)=O)=C(O)[C@@]2(O)C(=O)C3=C(O)c4c(O)cccc4[C@@](C)(O)[C@H]3C[C@@H]12 [TET, tetracycline]
[1]
  MIC: 0.5 µg/mL (≈ 1.13 µM)
[2]
  MIC: 0.5 µg/mL (≈ 1.13 µM)
[3]
  MIC: 0.5 µg/mL (≈ 1.13 µM)
[4]
  MIC: 2 µg/mL (≈ 4.5 µM)
[5]
  MIC: 1 µg/mL (≈ 2.25 µM)
[6]
  MIC: 0.5 µg/mL (≈ 1.13 µM)
[7]
  metabolic activity in biofilm assay: hardly any measurable metabolic activity
S. aureus PIA 90 biofilm
  suppression of metabolic activity (AB reduction): complete suppression
[8]
  susceptibility under planktonic growth: susceptible; also recorded: sensitive
[9]
  LIVE/DEAD staining of biofilm cells (CLSM): a significant part of the cells are still green; also recorded: still contained a significant number of living cells
